# Columns and labels:
# tropoelastin = assay: Tropoelastin immunostaining in the papillary dermis of skin explants, semi-quantified by image analysis; format: cell-based, human; conditions: when applying L-Carnosine
# Protocol: (§1) Human skin explants of an average diameter of 12 mm (+1 mm) were prepared on an abdo-plasty coming from a person with a phototype II according to Fitz-patrick skin colour classification. The explants were kept in survival in BEM culture medium (BIO-EC's Explants Medium) at 37° C. in a humid, 5%-CO2 atmosphere.
# (§2) Compositions A and B were applied at the rate of 2 μL per 1 cm^2 skin sample (~2 mg/cm^2) and spread using a small spatula on day 0, day 1, day 2, day 3 and day 6 (30 min before infrared irradiation exposure). […] The culture medium was half renewed (1 ml per well) on day 2, day 3 and day 6.
# (§3) On day 6, the culture media of all the batches was replaced by HBSS (Hank's Balanced Saline Solution; 1 ml per explant). The batches IR, IR-C2, and IR-T were irradiated using a infrared lamp (Dr FISCHER 1000W, 235V 2500K; 760-3000 nm), for 1:24 h (720 J/cm^2; 140 mW/cm^2). The non-irradiated batches were kept in HBSS in the dark. […]
# Nuclei have been post stained with propidium iodide. The staining was assessed by microscopical observation and semi-quantified by image analysis. […]
# Tropoelastin immunostaining was assessed by microscopical observation of skin sections with semi-quantification by image analysis using the software cellSens (Olympus).
# (§4) Analysed zone: ROI including the papillary dermis.
# (§5) Number of analysed images per batch: 9. […]
# fibrillin-1 = assay: Fibrillin-1 immunostaining in the papillary dermis of skin explants, semi-quantified by image analysis; format: cell-based, human; conditions: after infrared irradiation
# Protocol: as §1, §2, §3
# Nuclei have been post-stained with propidium iodide. The staining was assessed by microscopical observation and semi-quantified by image analysis. […]
# Fibrillin-1 immunostaining was assessed by microscopical observation of skin sections with semi-quantification by image analysis using the software cellSens (Olympus).
# as §4, §5
smiles,measurement,setting,value
NCCC(=O)N[C@@H](Cc1cnc[nH]1)C(=O)O [L-Carnosine],amounts of elastin after infrared irradiation versus without infrared irradiation,tropoelastin,not significantly different
same,amount of fibrillin-1 in the dermis,fibrillin-1,strongly increase
